From patent US10975119B2, “Selective cysteine protease inhibitors and uses thereof” (Genesis Technologies Limited, priority 2011, dated 2021)
Counter-ions that a name gives are not always drawn. Like-named read-outs stand apart in the source and are kept apart here.

Legend:
Assay type in all cases: biochemical
[1] = target: T1, Caspase-1 (Homo sapiens, UniProt P29466); test: Caspase-1 inhibitor screening assay (BioVision kit, YVAD-AFC); details: for inhibition at 10 µM: read-out: % Inhibition at 10 uM Casp1; for inhibition at 100 µM: read-out: % Inhibition at 100 uM Casp1
T1 construct: mixing the compounds with the respective active caspases; purchased BioVision K151-100
T1 sequence (P29466 120-297 limits assumed): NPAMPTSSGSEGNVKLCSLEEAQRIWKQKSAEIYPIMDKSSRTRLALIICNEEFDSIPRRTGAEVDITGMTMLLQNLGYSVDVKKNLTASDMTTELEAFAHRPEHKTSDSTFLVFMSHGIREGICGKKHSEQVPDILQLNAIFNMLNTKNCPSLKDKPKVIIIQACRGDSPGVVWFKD
T1 sequence (P29466 317-404 limits assumed): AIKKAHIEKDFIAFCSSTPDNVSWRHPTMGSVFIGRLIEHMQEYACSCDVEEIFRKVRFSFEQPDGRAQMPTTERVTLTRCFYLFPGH
Procedure, shortened: (§1)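 Each caspase cleaved its own AFC-labelled peptide substrate, and released AFC was read by fluorescence. % inhibition came from RFU against an uninhibited control.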

[2] = target: T2, Caspase-3 (Homo sapiens, UniProt P42574); test: Caspase-3 inhibitor screening assay (BioVision kit, DEVD-AFC); details: for inhibition at 10 µM: read-out: % Inhibition at 10 uM Casp3; for inhibition at 100 µM: read-out: % Inhibition at 100 uM Casp3
T2 construct: mixing the compounds with the respective active caspases; purchased BioVision K153-100
T2 sequence (P42574 29-175 limits assumed): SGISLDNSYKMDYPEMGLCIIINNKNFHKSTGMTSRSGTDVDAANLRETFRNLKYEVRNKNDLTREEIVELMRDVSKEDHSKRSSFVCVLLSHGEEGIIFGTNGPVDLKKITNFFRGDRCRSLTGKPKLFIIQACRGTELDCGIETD
T2 sequence (P42574 176-277 limits assumed): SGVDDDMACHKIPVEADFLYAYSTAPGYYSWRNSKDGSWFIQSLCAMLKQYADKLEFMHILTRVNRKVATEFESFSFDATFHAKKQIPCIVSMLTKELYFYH
Procedure, shortened: as §1

[3] = target: T3, Caspase-5 (Homo sapiens, UniProt P51878); test: Caspase-5 inhibitor screening assay (BioVision kit, WEHD-AFC); details: for inhibition at 10 µM: read-out: % Inhibition at 10 uM Casp5; for inhibition at 100 µM: read-out: % Inhibition at 100 uM Casp5; for IC50: read-out: IC50 Casp5
T3 construct: mixing the compounds with the respective active caspases; purchased BioVision K155-100
T3 sequence (P51878 137-327 limits assumed): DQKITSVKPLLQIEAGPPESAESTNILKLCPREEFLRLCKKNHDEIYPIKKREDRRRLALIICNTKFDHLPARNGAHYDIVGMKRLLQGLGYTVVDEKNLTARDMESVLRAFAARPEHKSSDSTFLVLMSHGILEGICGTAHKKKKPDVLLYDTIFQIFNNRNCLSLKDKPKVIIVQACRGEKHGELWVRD
T3 sequence (P51878 347-434 limits assumed): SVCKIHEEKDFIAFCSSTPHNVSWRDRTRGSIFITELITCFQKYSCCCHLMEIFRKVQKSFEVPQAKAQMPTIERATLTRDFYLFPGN
Procedure, shortened: as §1

[4] = target: T4, Caspase-6 (Homo sapiens, UniProt P55212); test: Caspase-6 inhibitor screening assay (BioVision kit, VEID-AFC); details: for inhibition at 10 µM: read-out: % Inhibition at 10 uM Casp6; for inhibition at 100 µM: read-out: % Inhibition at 100 uM Casp6; for IC50: read-out: IC50 Casp6
T4 construct: mixing the compounds with the respective active caspases; purchased BioVision K156-100
T4 sequence (P55212 24-179 limits assumed): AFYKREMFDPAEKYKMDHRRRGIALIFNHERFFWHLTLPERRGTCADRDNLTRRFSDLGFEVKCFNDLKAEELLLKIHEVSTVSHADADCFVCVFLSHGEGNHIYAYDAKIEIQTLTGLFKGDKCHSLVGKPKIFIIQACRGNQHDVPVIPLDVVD
T4 sequence (P55212 194-293 limits assumed): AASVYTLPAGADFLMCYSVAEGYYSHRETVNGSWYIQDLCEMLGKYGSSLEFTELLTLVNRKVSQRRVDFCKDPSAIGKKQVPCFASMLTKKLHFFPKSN
Procedure, shortened: as §1

[5] = target: T5, Caspase-7 (Homo sapiens, UniProt P55210); test: Caspase-7 inhibitor screening assay (BioVision kit, DEVD-AFC); details: for inhibition at 10 µM: read-out: % Inhibition at 10 uM Casp7; for inhibition at 100 µM: read-out: % Inhibition at 100 uM Casp7
T5 construct: mixing the compounds with the respective active caspases; purchased BioVision K157-100
T5 sequence (P55210 24-198 limits assumed): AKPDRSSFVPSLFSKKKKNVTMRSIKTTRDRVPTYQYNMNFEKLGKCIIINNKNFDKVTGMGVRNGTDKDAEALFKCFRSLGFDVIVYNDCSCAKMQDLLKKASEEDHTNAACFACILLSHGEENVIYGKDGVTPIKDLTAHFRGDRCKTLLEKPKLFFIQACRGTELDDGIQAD
T5 sequence (P55210 207-303 limits assumed): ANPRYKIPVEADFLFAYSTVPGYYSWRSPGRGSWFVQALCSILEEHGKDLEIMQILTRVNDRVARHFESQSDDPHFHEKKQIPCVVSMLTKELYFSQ
Procedure, shortened: as §1

[6] = target: T6, Caspase-8 (Homo sapiens, UniProt Q14790); test: Caspase-8 inhibitor screening assay (BioVision kit, IETD-AFC); details: for inhibition at 10 µM: read-out: % Inhibition at 10 uM Casp8; for inhibition at 100 µM: read-out: % Inhibition at 100 uM Casp8
T6 construct: mixing the compounds with the respective active caspases; purchased BioVision K158-100
T6 sequence (Q14790 217-374 limits assumed): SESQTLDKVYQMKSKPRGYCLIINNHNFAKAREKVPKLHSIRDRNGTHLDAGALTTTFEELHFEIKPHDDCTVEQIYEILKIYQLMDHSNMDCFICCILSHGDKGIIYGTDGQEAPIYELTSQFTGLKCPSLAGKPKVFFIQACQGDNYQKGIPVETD
T6 sequence (Q14790 385-479 limits assumed): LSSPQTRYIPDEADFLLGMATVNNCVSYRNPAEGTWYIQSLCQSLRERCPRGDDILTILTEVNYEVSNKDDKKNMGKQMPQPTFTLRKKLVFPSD
Procedure, shortened: as §1

[7] = target: T7, Caspase-10 (Homo sapiens, UniProt Q92851); test: Caspase-10 inhibitor screening assay (BioVision kit, AEVD-AFC); details: for inhibition at 10 µM: read-out: % Inhibition at 10 uM Casp10; for inhibition at 100 µM: read-out: % Inhibition at 100 uM Casp10
T7 construct: mixing the compounds with the respective active caspases; purchased BioVision K160-100
T7 sequence (Q92851 220-415 limits assumed): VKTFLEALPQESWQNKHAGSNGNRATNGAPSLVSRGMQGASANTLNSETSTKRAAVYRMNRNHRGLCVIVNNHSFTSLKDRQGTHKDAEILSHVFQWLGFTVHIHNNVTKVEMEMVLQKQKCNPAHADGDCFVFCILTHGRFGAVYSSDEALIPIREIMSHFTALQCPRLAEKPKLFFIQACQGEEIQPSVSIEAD
T7 sequence (Q92851 416-521 limits assumed): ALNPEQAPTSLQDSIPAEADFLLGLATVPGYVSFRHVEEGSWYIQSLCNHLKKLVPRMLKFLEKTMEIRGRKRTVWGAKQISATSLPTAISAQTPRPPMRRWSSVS
Procedure, shortened: as §1

[8] = read-out: potency (IC50) against caspase-1

Structure (SMILES) | inhibition at 10 µM [1] | inhibition at 100 µM [1] | inhibition at 10 µM [2] | inhibition at 100 µM [2] | IC50 ([2]; read-out: IC50 Casp3) | inhibition at 10 µM [3] | inhibition at 100 µM [3] | IC50 [3] | inhibition at 10 µM [4] | inhibition at 100 µM [4] | IC50 [4] | inhibition at 10 µM [5] | inhibition at 100 µM [5] | inhibition at 10 µM [6] | inhibition at 100 µM [6] | IC50 ([6]; read-out: IC50 Casp8) | inhibition at 10 µM [7] | inhibition at 100 µM [7] | IC50 ([7]; read-out: IC50 Casp10) | IC50 ([5]; read-out: IC50 Casp7) | also measured
CCC(C)[C@H](NC(=O)[C@H](CCC(=O)O)NC(=O)[C@@H](NC(=O)OCc1ccccc1)C(C)C)C(=O)N[C@H](/C=C/S(C)(=O)=O)CC(=O)O (stereo partly drawn) [Compound 38, Z-Val-Glu-Ile-Asp-methyl vinyl sulfone] | 81% | 97% | 63% | 89% | 6.96 µM | 32% | 81% | 19.6 µM | 88% | 96% | 0.6 µM | 0% | 31% | 97% | 100% | 0.66 µM | 100% | 100% | 0.13 µM | – | IC50 ([1]; read-out: IC50 Casp1): 2.7 µM
CC(C)[C@H](NC(=O)[C@H](CCC(=O)O)NC(=O)[C@H](Cc1c[nH]c2ccccc12)NC(=O)OCc1ccccc1)C(=O)N[C@H](/C=C/S(C)(=O)=O)CC(=O)O [Compound 40, Z-Trp-Glu-Val-Asp-methyl vinyl sulfone] | 99% | 100% | 63% | 94% | 6.55 µM | 95% | 100% | 0.75 µM | 7% | 51% | ~100 µM | 19% | 90% | 61% | 96% | 5.93 µM | 80% | 99% | 3.29 µM | 23.7 µM | IC50 [1, 8]: 0.026 µM
CC(C)[C@H](NC(=O)[C@@H](N)Cc1ccc(O)cc1)C(=O)N[C@@H](C)C(=O)N[C@H](/C=C/S(C)(=O)=O)CC(=O)O [Compound 42, Tyr-Val-Ala-Asp methyl vinyl sulfone] | 26% | 72% | 0% | 0% | > 100 µM | 43% | 93% | 12.4 µM | 6% | 4% | > 100 µM | 0% | 0% | 12% | 30% | > 100 µM | 13% | 79% | 34 µM | > 100 µM | IC50 ([1]; read-out: IC50 Casp1): 33.8 µM
CCOC(=O)/C=C/[C@@H](N)CC(=O)O [Compound 44, Asp ethyl vinyl ester tosyl salt] | 0% | 0% | 0% | 0% | > 100 µM | 0% | 0% | > 100 µM | 0% | 0% | > 100 µM | 0% | 0% | 0% | 7% | > 100 µM | 4% | 15% | > 100 µM | > 100 µM | IC50 ([1]; read-out: IC50 Casp1): > 100 µM
CC(C)[C@H](NC(=O)[C@@H](NC(=O)[C@H](CC(=O)O)NC(=O)OCc1ccccc1)c1ccccc1)C(=O)N[C@H](/C=C/S(C)(=O)=O)CCC(=O)O [Compound 84, Z-Asp-Phg-Val-Glu methyl vinyl sulfone] | 0% | 0% | 39% | 88% | 15.2 µM | 0% | 0% | > 100 µM | 0% | 5% | > 100 µM | 9% | 76% | 9% | 10% | > 100 µM | 2% | 0% | > 100 µM | 49.9 µM | IC50 ([1]; read-out: IC50 Casp1): > 100 µM
CCOC(=O)/C=C/[C@H](CC(=O)O)NC(=O)[C@@H](NC(=O)[C@@H](NC(=O)[C@H](CC(=O)O)NC(=O)OCc1ccccc1)c1ccccc1)C(C)C [Compound 105, Z-Asp-Phg-Val-Asp Ethyl Vinyl Ester] | 84% | 96% | 99% | 100% | 0.03 µM | 41% | 41% | – | 13% | 10% | – | 99% | 99% | 77% | 79% | 2.62 µM | 96% | 99% | 0.59 µM | 0.15 µM | IC50 [1, 8]: 1.05 µM; IC50 ([2]; read-out: potency (IC50) against caspase-3): 0.027 µM; IC50 ([5]; read-out: potency (IC50) against caspase-7): 0.145 µM; IC50 ([6]; read-out: potency (IC50) against caspase-8): 2.62 µM; IC50 ([7]; read-out: potency (IC50) against caspase-10): 0.592 µM
CCOC(=O)/C=C/[C@H](CC(=O)O)NC(=O)[C@H]1CCCN1C(=O)[C@@H](NC(=O)c1ccc(N)c(Cl)c1)C(C)(C)C [Compound 116, (4-amino-3-chlorobenzene carbonyl)-t-Leu-Pro-Asp Ethyl vinyl ester] | – | – | – | – | 33.4 µM | – | – | 0.13 µM | – | – | > 100 µM | – | – | – | – | 0.6 µM | – | – | 0.55 µM | 3.6 µM | IC50 ([1]; read-out: IC50 Casp1): 0.01 µM
